Experimental data published in US9668959B2, “A3 adenosine receptor ligands for modulation of pigmentation” (ORADIN PHARMACEUTICAL LTD., priority 2009, dated 2017).

Experiments:
[1] = system: B16 melanocytes; assay: Melanin assay (melanin in cell lysates and media) in B16 melanocytes; assay type: cell-based, murine; settings: for increase of the total melanin level: FIG. 1B; for melanin secretion to the media, visual (photograph): FIG. 3E; for detectable levels of melanin secreted to the medium (extracellular): after 24 hours of exposure
Method: B16 F1 melanoma cells were grown adherently and maintained in DMEM (without phenol red), containing 10% fetal calf serum, 1% antibiotics (penicillin, streptomycin and nystatin, each at 100 U/ml), and 2 mM L-glutamine. Cells were cultured at 37° C. in 5% CO2, and passaged two to three times weekly at a ratio of 1:10.
Melanin content was determined as reported by Sato et al., (2008), Biol. Pharm. Bull., 31(1):33-7, with modifications. Cells (6.5×10^4) were seeded into 6 well plates with 5 ml of DMEM medium (described above) and incubated at 37° C. with 5% CO2 for 3-4 hours to enable cell adherence. Cells were then exposed to test chemicals (IB-MECA, MRS-1523 or kojic acid) at the desired concentration and incubation periods. After the treatment, the supernatants were collected to determine the amount of melanin secreted to the medium. Cells were washed with PBS, detached by incubation with trypsin/EDTA and then DMEM with serum (0.75 ml) was added to each well. Cells were collected by centrifugation and lysed by exposure to 2N NaOH (1 ml) at 60° C. for 1 h and the melanin content was determined by measuring the absorption at 400 nm. The amount of protein in each lysate was determined using bovine serum albumin is used as the standard. The amount of melanin in each sample was calculated using synthetic melanin as standard. The results were expressed as the melanin content per mg protein (μg/mg protein). To compare among treatments, the results were expressed as percent relative to control.

[2] = system: Mitf; assay: Mitf expression and localization in B16 melanocytes (immunostaining, confocal microscopy); assay type: cell-based, murine; settings: 10 μM; for Mitf expression: 3 h or 24 h, FIG. 7
Method: B16 melanocytes were grown for 24 h on glass cover-slips coated with poly-L-lysine (500 ug/ml) in 6 wells plates in the presence of IB-MECA or MRS-1523 (10 μM), for 3 h or 24 h at 37° C. Cells were fixed in 4% formaldehyde in phosphate buffered saline (PBS) for 1 h at room temperature. […] To block non-specific interaction of the antibodies, cells were incubated with PBS (1% BSA, 0.1% Triton X-100). […] Cells were washed three times with PBS and mounted with Fluoromount (Sigma). Cells were visualized by confocal microscopy (excitation 553 and emission at 568, Lieca).

[3] = system: A3 adenosine receptor; settings: cited from earlier work
[4] = system: human breast skin; assay: Ex vivo human skin organ culture, pigmentation by Fontana-Masson stain; assay type: cell-based; settings: for melanin accumulation and/or deposition in keratinocytes (histological appearance): FIG. 9
Method: Formalin fixed paraffin embedded skin sections from samples of human breast skin treated with IB-MECA, MRS-1523 or hydroquinone as described for FIG. 8, were evaluated for Fontana-Masson staining and visualized by light microscopy (×400). IBMX (100 μM) was used as a positive control for induction of melanogenesis. K, keratinocytes; M, melanocytes.
Samples of human breast skin obtained during breast surgery were cut into pieces (0.5×0.5 cm) and cultured in DMEM medium (described above) in 6 well plates and incubated at 37° C. with 5% CO2 for 12 days. Skin samples were topically treated with 10 or 50 μM of various A3 adenosine receptor ligands or 100 μM hydroquinone three times during the incubation period and the medium was exchanged every 3 days.

[5] = system: human skin explants; assay: Ex vivo human skin organ culture, pigmentation by DOPA staining and light transmission; assay type: cell-based; settings: for number of dark-stained DOPA positive melanocytes (D-P-M) compared to control: IB-MECA or MRS-1523 10 or 50 μM, hydroquinone 100 μM, FIGS. 8B and 8D; for melanin levels in skin explants: 10 or 50 μM, 12 days of exposure
Method: Samples of human breast skin obtained during breast surgery were cut into pieces (0.5×0.5 cm) and cultured in DMEM medium (described above) in 6 well plates and incubated at 37° C. with 5% CO2 for 12 days. […] Treated skin samples were washed with PBS and the epidermal sheets were separated from the dermis and incubated in 0.1% L-3,4-DOPA in PBS for 4 h at 37° C. The epidermis sheets were then fixed with 4% formaldehyde solution, dehydrated by graded alcohol, cleared in xylene, and mounted on glass slides. DOPA positive melanocytes were visualized by light microscopy (×400 magnification). […] Light transmission of each area in the epidermis sheet was calculated and expressed as a mean of density of three images.

[6] = system: Akt; assay: Akt phosphorylation in serum starved B16 melanocytes (western blot); assay type: cell-based, murine; settings: 10 μM, up to 3 h
Method: (§1) B16 melanocytes grown in 6-well plates were serum starved overnight and then incubated in the presence of IB-MECA or MRS-1523 (10 μM), for different time intervals at 37° C. Cells were then rinsed with ice cold PBS and lysed by addition of RIPA buffer containing: proteinase inhibitor (PIC, 1:50 v/v), 0.1 mM phenylmethylsulphonylfluoride (PMSF) and 1 mM sodium orthovandate. Cells debris was removed by centrifugation. The protein level in the supernatants was determined using BSA as standard. Equal amounts of the sample (20 μg) were separated by SDS-PAGE using 10% polyacrylamide gels. The resolved proteins were then electroblotted onto nitrocellulose membrane. Membranes were blocked with 1% bovine serum albumin and incubated with anti-ERK-2 antibody (1:1000) or anti-phospho-ERK antibody (1:10000) for 1 h at room temperature, or with anti-Akt-1 antibody (1:1000) or with anti-phospho-Akt antibody […] at 4° C. for 24 h. Blots were then washed and incubated with horseradish peroxidase (conjugated secondary antibodies), for 1 hour at room temperature. The proteins were detected using ECL kit. For the detection of ERK phosphorylation after 72 hours of exposure to the ligands, non-starved cells were used (with 10% FCS).

[7] = system: ERK1/2; assay: ERK1/2 phosphorylation in B16 melanocytes (western blot); assay type: cell-based, murine; settings: for ERK phosphorylation: 72 hours of exposure, non-starved cultures (10% FCS), FIG. 6B
Method: as §1
ERK phosphorylation in non-starved cultures (containing 10% FCS) after 72 hours of exposure to the ligands was examined.

[8] = system: B16 melanocytes; assay: Microscopy of melanosome level and distribution in treated B16 melanocytes; assay type: cell-based, murine; settings: 10 μM, 24 h, FIG. 3A
[9] = highest IB-MECA concentration, 5 days, FIG. 1A
[10] = 10 μM, serum starved cells, FIG. 6A

SMILES: CNC(=O)[C@H]1O[C@@H](n2cnc3c(NCc4cccc(I)c4)ncnc32)[C@H](O)[C@@H]1O [IB-MECA, N^6-(3-iodobenzyl) adenosine-5′-(N-methyluronamide)]
- increase of the total melanin level ([1]; 5 μM, 5 days): 220±19.4%
- level of total melanin ([1]; 10 μM, 72 hours of exposure): non-significantly increased
- increase in the total melanin level ([1]; 10 μM, 120 h): 537±31.9%
- increase of the total melanin level ([1]; 10 μM, 5 days): 369±1%
- melanin secretion to the media, visual (photograph) ([1]; 10 μM, 5 days): visually observable increase in melanin
- detectable levels of melanin secreted to the medium (extracellular) ([1]; 10 μM): not observed
- total melanin level increased by ([1]; 10 μM, four days (96 h)): 198±12.1%
- increase of the total melanin level ([1]; 40 μM, 5 days): 441±53.8%
- intracellular melanin level increased by [1, 9]: 143±4.1%
- secretion of melanin to the media increased by [1, 9]: 554±23.8%
- time to translocation of Mitf protein to the nucleus [2]: ≤ 3 h
- Mitf expression [2]: highly expressed
- Mitf expression in cytoplasm and nucleus ([2]; after 24 h of exposure): remained high
- selectivity for the A3 adenosine receptor versus either the A1 or A2A receptors [3]: 50 fold
- pigmentation of Fontana-Masson stained skin sections compared to control ([4]; 10 μM): increased pigmentation
- melanin accumulation and/or deposition in keratinocytes (histological appearance) [4]: elevation in melanin accumulation and/or deposition in the adjacent keratinocytes
- pigmentation increased by (light transmission through epidermal sheets after DOPA staining) ([5]; 10 μM, 12 days): 27+3.9%
- pigmentation increased by (light transmission through epidermal sheets after DOPA staining) ([5]; 50 μM, 12 days): 36+2.6%
- number of dark-stained DOPA positive melanocytes (D-P-M) compared to control ([5]; 12 days): increased number
- melanin levels in skin explants ([5]; topical): increased melanin levels
- Akt phosphorylation on continued exposure [6]: increased phosphorylation of Akt
- level of ERK phosphorylation ([7]; 10 μM, 10 min to 3 h, serum starved cells, FIG. 6A): did not increase the level of ERK phosphorylation
- ERK phosphorylation [7]: did not appear to affect ERK phosphorylation
- melanosome level and distribution in the cytosol [8]: melanosomes were accumulated in the perinuclear areas

SMILES: Oc1ccc(O)cc1 [hydroquinone]
- number of dark-stained DOPA positive melanocytes (D-P-M) compared to control ([5]; 12 days): increased number
- skin pigmentation ([5]; topical, 100 μM, 12 days): increased skin pigmentation

SMILES: CCCOC(=O)c1c(-c2ccccc2)nc(CC)c(C(=O)SCC)c1CCC [MRS-1523, 3-propyl-6-ethyl-5[(ethylthio)carbonyl]-2-phenyl-4-propyl-3-pyridine carboxylate]
- melanin level in the cells decreased by ([1]; 1 μM, 5 days): 27±5.7%
- total melanin decreased by ([1]; 1 μM, 5 days): 37±5.7%
- melanin level in the cells decreased by ([1]; 5 μM, 5 days): 24±1.7%
- total melanin decreased by ([1]; 5 μM, 5 days): 24±1.9%
- decrease in the overall melanin level ([1]; 10 μM, 5 days): 88±1.3%
- melanin secretion to the media, visual (photograph) ([1]; 10 μM, 5 days): visually observable decrease in melanin
- detectable levels of melanin secreted to the medium (extracellular) ([1]; 10 μM): not observed
- total melanin level decreased by ([1]; 10 μM, four days (96 h)): 67±4.4%
- melanin level within the cells decreased by ([1]; 40 μM, 5 days, FIG. 2A): 11±2.3%
- melanin secretion blocked by ([1]; 40 μM, 5 days, FIG. 2A): 88±1.7%
- decrease in total melanin ([1]; 40 μM, 5 days, FIG. 2B): 67±1.07%
- decrease of the intracellular melanin ([1]; "this treatment" (concentration unclear), 5 days): 48%±4.9
- secreted and total melanin levels compared to control ([1]; all concentrations within 1-40 μM, 5 days): lower than that of the control
- Mitf expression [2]: very low Mitf expression
- melanin accumulation and/or deposition in keratinocytes (histological appearance) [4]: lesser extent of melanin accumulation and/or deposition in the keratinocytes
- pigmentation of Fontana-Masson stained skin sections compared to control ([4]; concentration not given): decreased pigmentation
- pigmentation decreased by (light transmission through epidermal sheets after DOPA staining) ([5]; 10 μM, 12 days): 80+21.8%
- pigmentation decreased by (light transmission through epidermal sheets after DOPA staining) ([5]; 50 μM, 12 days): 49.5 ± 6.9%
- number of dark-stained DOPA positive melanocytes (D-P-M) compared to control ([5]; 12 days): decreased number
- melanin levels in skin explants ([5]; topical): decreased melanin levels
- Akt phosphorylation on continued exposure [6]: downregulation of P-Akt
- time to induced phosphorylation of ERK 1 [7, 10]: ≤ 30 min
- time to induced phosphorylation of ERK 2 [7, 10]: ≤ 10 min
- ERK phosphorylation [7]: stimulated phosphorylation of both ERK1 and ERK 2
- melanosome level and distribution in the cytosol [8]: more melansomes were observed in the cell periphery and in the dendritic sites of the control and IB-MECA treated melanocytes as compared to MRS-1523 treated cells

SMILES: O=c1cc(CO)occ1O [kojic acid]
- effect on melanin synthesis and secretion ([1]; 5 days, FIG. 4A): both melanin synthesis (overall melanin levels) and secretion (melanin level in the medium) were affected
- inhibition in the total melanin level ([1]; 5 days, concentration not given, FIG. 4B): 51%±2.4

SMILES: CC(C)Cn1c(=O)n(C)c(=O)c2[nH]cnc21 [IBMX, 3-isobutyl-1-methyl-xanthine]
- pigmentation of Fontana-Masson stained skin sections compared to control ([4]; 100 μM, positive control): increased pigmentation
